Converted amounts (≈) assume the structure as drawn.
What was measured:
L-1210 = assay: Antitumor (in vitro) activity; format: cell-based; settings: L-1210, in vitro
Gram-positive bacteria = assay: Antibacterial activity against Gram-positive bacteria; format: cell-based
Protocol: (§1) The antibacterial assay is a standard microplate agar assay using PYG agar, pH 6. PYG agar consists of the following ingredients:
(§2) The MIC is determined by standard methods. The inocula are overnight cultures of the test organisms, diluted so that the final population contains approximately 10^5 cells/ml. The agar plates are incubated at 28° to 37° C. for 24 hours. The lowest antibiotic concentration which allows no growth=MIC or minimum inhibitory concentration.
as §2, with “Assay. The antibacterial assay is a standard microplate agar assay using PYG agar, pH 6. The MIC” for “The MIC”

S. schottmuelleri 126 = assay: Antibacterial microplate agar assay (MIC); format: cell-based; settings: PYG agar, pH 6, 24 hours, 28° to 37° C.
Protocol: as §1, §2
as §2, with “Assay. The antibacterial assay is a standard microplate agar assay using PYG agar, pH 6. The MIC” for “The MIC”

S. marcescens 131 = assay: Antibacterial microplate agar assay (MIC); format: cell-based; settings: PYG agar, pH 6, 24 hours, 28° to 37° C.
Protocol: as §1, §2
as §2, with “Assay. The antibacterial assay is a standard microplate agar assay using PYG agar, pH 6. The MIC” for “The MIC”

P. stuartii 6570 = assay: Antibacterial microplate agar assay (MIC); format: cell-based; settings: PYG agar, pH 6, 24 hours, 28° to 37° C.
Protocol: as §1, §2
as §2, with “Assay. The antibacterial assay is a standard microplate agar assay using PYG agar, pH 6. The MIC” for “The MIC”

Enterococcus sp. 701 = assay: Antibacterial microplate agar assay (MIC); format: cell-based; settings: PYG agar, pH 6, 24 hours, 28° to 37° C.
Protocol: as §1, §2
as §2, with “Assay. The antibacterial assay is a standard microplate agar assay using PYG agar, pH 6. The MIC” for “The MIC”

E. coli 45 = assay: Antibacterial microplate agar assay (MIC); format: cell-based; settings: PYG agar, pH 6, 24 hours, 28° to 37° C.
Protocol: as §1, §2
as §2, with “Assay. The antibacterial assay is a standard microplate agar assay using PYG agar, pH 6. The MIC” for “The MIC”

E. cloacae 6783 = assay: Antibacterial microplate agar assay (MIC); format: cell-based; settings: PYG agar, pH 6, 24 hours, 28° to 37° C.
Protocol: as §1, §2
as §2, with “Assay. The antibacterial assay is a standard microplate agar assay using PYG agar, pH 6. The MIC” for “The MIC”

K. pneumoniae 58 = assay: Antibacterial microplate agar assay (MIC); format: cell-based; settings: PYG agar, pH 6, 24 hours, 28° to 37° C.
Protocol: as §1, §2
as §2, with “Assay. The antibacterial assay is a standard microplate agar assay using PYG agar, pH 6. The MIC” for “The MIC”

S. flexneri 143 = assay: Antibacterial microplate agar assay (MIC); format: cell-based; settings: PYG agar, pH 6, 24 hours, 28° to 37° C.
Protocol: as §1, §2
as §2, with “Assay. The antibacterial assay is a standard microplate agar assay using PYG agar, pH 6. The MIC” for “The MIC”

Ps. aeruginosa 95 = assay: Antibacterial microplate agar assay (MIC); format: cell-based; settings: PYG agar, pH 6, 24 hours, 28° to 37° C.
Protocol: as §1, §2
as §2, with “Assay. The antibacterial assay is a standard microplate agar assay using PYG agar, pH 6. The MIC” for “The MIC”

[1] = 60% aq. ethanol
S. faecalis 694 = assay: Antibacterial microplate agar assay (MIC); format: cell-based, Streptococcus faecalis; settings: PYG agar, pH 6, 24 hours, 28° to 37° C.
Protocol: as §1, §2
as §2, with “Assay. The antibacterial assay is a standard microplate agar assay using PYG agar, pH 6. The MIC” for “The MIC”

S. aureus 6690 = assay: Antibacterial microplate agar assay (MIC); format: cell-based, Staphylococcus aureus; settings: PYG agar, pH 6, 24 hours, 28° to 37° C.
Protocol: as §1, §2
as §2, with “Assay. The antibacterial assay is a standard microplate agar assay using PYG agar, pH 6. The MIC” for “The MIC”

S. aureus UC 76 = assay: Antibacterial microplate agar assay (MIC); format: cell-based, Staphylococcus aureus; settings: PYG agar, pH 6, 24 hours, 28° to 37° C.
Protocol: as §1, §2
as §2, with “Assay. The antibacterial assay is a standard microplate agar assay using PYG agar, pH 6. The MIC” for “The MIC”

S. aureus 6685 = assay: Antibacterial microplate agar assay (MIC); format: cell-based, Staphylococcus aureus; settings: PYG agar, pH 6, 24 hours, 28° to 37° C.
Protocol: as §1, §2
as §2, with “Assay. The antibacterial assay is a standard microplate agar assay using PYG agar, pH 6. The MIC” for “The MIC”

## C/C=C(\N=C=S)C(=O)O[C@H]1[C@@H](O[C@H]2C[C@H](OC)[C@@](O)([C@H](C)OC(=O)C(C)C)[C@H](C)O2)[C@@H](O)[C@H]([C@@]2(O)CC(=O)C(=N)C(C(=O)O)=C2O)O[C@@H]1COC(C)=O [Paulomycin B]
L-1210
  ID50: 8.6 µg/mL (≈ 11.1 µM)
  ID90: 21 µg/mL (≈ 27.2 µM)
Gram-positive bacteria; for example Bacillus subtilis, Staphylococcus aureus, Streptococcus pyogenes and Streptococcus faecalis
  adversely affecting the growth of Gram-positive bacteria: adversely affecting the growth of Gram-positive bacteria
Gram-positive bacteria; in words
  activity against various Gram-positive bacteria: active against various Gram-positive bacteria
S. schottmuelleri 126
  Minimum Inhibitory Concentration: 500 µg/mL
S. marcescens 131
  Minimum Inhibitory Concentration: 250 µg/mL
P. stuartii 6570
  Minimum Inhibitory Concentration: 250 µg/mL
Enterococcus sp. 701
  Minimum Inhibitory Concentration: 31.2 µg/mL
E. coli 45
  Minimum Inhibitory Concentration: 250 µg/mL
E. cloacae 6783
  Minimum Inhibitory Concentration: 500 µg/mL
K. pneumoniae 58
  Minimum Inhibitory Concentration: 250 µg/mL
S. flexneri 143
  Minimum Inhibitory Concentration: 250 µg/mL
Ps. aeruginosa 95
  Minimum Inhibitory Concentration: 250 µg/mL
[1]
  pKa: 7.4
S. faecalis 694
  Minimum Inhibitory Concentration: 125 µg/mL
S. aureus 6690
  Minimum Inhibitory Concentration: 2.0 µg/mL
S. aureus UC 76
  Minimum Inhibitory Concentration: 0.50 µg/mL
S. aureus 6685
  Minimum Inhibitory Concentration: 0.50 µg/mL

Source: patent US4335108A, “Paulomycin A and B and preparation thereof” (The Upjohn Company, priority 1980, dated 1982)
